Test results from patent US20240408042A1, “ORALLY DISINTEGRATING BACLOFEN COMPOSITIONS AND METHODS OF MAKING SAME” (Clinical Research Associates LLC, priority 2023, published 2024).

What was measured:
[1] = animal models; cited from earlier work
[2] = Excipient solubility in HPLC method diluent; type: physicochemical; conditions: approximately 1 to 2 mg/mL
[3] = compared with S-baclofen; cited from earlier work

Structure (SMILES)	Completely Soluble in 85% 50 mM Potassium Phosphate, pH 3.0, 15% ACN [2]	further results
NCC(CC(=O)O)c1ccc(Cl)cc1 (racemic) [Baclofen, (±)-4-Amino-3-(4-chlorophenyl) butanoic acid]	–	absorption following administration into the colon [1]: poorly absorbed
NC[C@H](CC(=O)O)c1ccc(Cl)cc1 (single isomer, unassigned) [R-baclofen]	–	potency in reducing obsessive-compulsive and repetitive behavior and audiogenic seizures [3]: more potent than S-baclofen
CCCCCCCCCCCCCCCCCCOC(=O)/C=C/C(=O)[O-].[Na+] [Pruv, Sodium Stearyl Fumarate]	No	–

Now from value to compound, other results behind:

Completely Soluble in 85% 50 mM Potassium Phosphate, pH 3.0, 15% ACN [2]	Structure (SMILES)	further results
Yes	OC[C@H]1O[C@H](O[C@]2(CCl)O[C@H](CCl)[C@@H](O)[C@@H]2O)[C@H](O)[C@@H](O)[C@H]1Cl [Sucralose]	–
Yes	OC[C@@H](O)[C@@H](O)[C@H](O)[C@H](O)CO [Pearlitol 300DC, Mannitol]	–
